The source of these data is patent US8618169B2, “Derivatives of N-phenylanthranilic acid and 2-benzimidazolone as potassium channel and/or neuron activity modulators” (Ramot at Tel-Aviv University Ltd., priority 2002, dated 2013).

The target of one series is T1, KCNQ2/3 channels (Homo sapiens, UniProt O43525+O43526).
T1 construct: expressed in transfected cells; host or cells: CHO cells
Nature of the series: KCNQ2/3 current in transfected CHO cells, whole-cell patch-clamp. The format is cell-based. On the technique in general: In patch-clamp work, channel activity is measured electrically.

A further series has as its system rat cortical neurons. Kind of series: Evoked and spontaneous action potential activity of cultured rat cortical neurons, current-clamp. It counts as cell-based.
A further series deals with T2, M-current (Rattus norvegicus, UniProt O88943+O88944).
T2 construct: the native M-current from pyramidal-like neurons was recorded; endogenous in cells; host or cells: primary cortical neurons from Sprague Dawley rat embryos (E18)
Kind of series: Native M-current of cultured rat cortical neurons, voltage-clamp. It counts as cell-based.

The test system of series [1] is electroshock-induced seizures. Nature of the series: Maximal electroshock seizure (MES) test in ICR mice. The format is in vivo. The procedure:
All animals were treated in accordance with the Guide for the Care and Use of Laboratory Animals as adopted and promulgated by the U.S. National Institutes of Health. The procedures followed for experimentation and maintenance of the animals were approved by the animal research ethics committee of Tel Aviv University and in accordance with the Guide for the Care and Use of Laboratory Animals (1996. National Academy of Sciences, Washington D.C). […] electroshock were induced in adult mice by means of two transcorneal electrodes delivering an alternative current of 50 mA at 60 Hz for 0.2 sec using rodent shocker (Hugo Sachs Electronik, type 221). […] The tested compounds were dissolved in 0.9% saline were administered intraperitoneally either 30 minutes or 2 hours before the electroshock was performed. Animals failing to show tonic hind limb extension were scored as protected and were expressed in percentage.
Five groups of 10 ICR mice each received intraperitoneally saline (control) or meclofenamic acid (Compound 1) at 25 mg/kg, 50 mg/kg, 100 mg/kg and 150 mg/kg and were subjected 30 minutes later to an electric shock (50 mA, 0.2 second duration, 60 Hz).
In view of the strong depressing activity of Compound 6 on cortical neurons, the anticonvulsant activity in mice subjected to seizures produced by electroshock was examined, using the MES test described above. Compound 6 dissolved in saline was injected intraperitoneally (in a volume of 10 ml/kg) at doses ranging from 6 mg/kg to 20 mg/kg to ICR adult mice and its anticonvulsant activity was compared with saline. Twenty minutes after drug administration, seizures were produced by electroshock (50 mA, 0.2 second duration, 60 Hz).
In general terms: The maximal electroshock test induces tonic seizures with an electrical stimulus.

The next series deals with KCNQ2/Q3 (Homo sapiens, UniProt O43525+O43526). Kind of series: KCNQ2/Q3 current in Xenopus oocytes, two-electrode voltage-clamp. It counts as cell-based. Set-up: expressed in transfected cells; host or cells: Xenopus oocytes (cRNA microinjection). Particulars: for increase of KCNQ2/Q3 currents: at −40 mV. The procedure:
Current measurements in Xenopus oocytes were performed as described in the art [Peretz et al. J. Physiol 545:751-766 (2002)]. Briefly, two-electrode voltage-clamp measurements were performed 3-5 days following cRNA microinjection into oocytes. Oocytes were bathed in a modified ND96 solution containing (in mM): 96 NaCl, 2 KCl, 1 MgCl2, 0.1 CaCl2 and 5 HEPES titrated to pH=7.4 with NaOH. Whole-cell currents were recorded at room temperature (20° C.-22° C.) using a GeneClamp 500 amplifier (Axon Instruments, Foster City, Calif., USA). Glass microelectrodes (A-M Systems, Inc., Carlsborg, Wis., USA) were filled with 3M KCl and had tip resistances of 0.5-1.5 MΩ. Stimulation of the preparation, data acquisition and analyses were performed using the pCLAMP 6.02 software (Axon Instruments, Foster City, Calif., USA) and a 586 personal computer Pentium 4 interfaced with a Digidata 1200 interface (Axon Instruments, Foster City, Calif., USA). Current signals were filtered at 0.5 kHz and digitized at 2 kHz.
Data analysis was performed using the Clampfit program (pClamp 8.1, Axon Instruments, Foster City, Calif., USA), Microsoft Excel 98 (Microsoft Corp., Redmond, Wash., USA), Axograph 4.6 (Axon Instruments, Foster City, Calif., USA) and Prism 2.0 (GraphPad, San Diego, Calif., USA). Leak subtraction was performed off-line, using the Clampfit program of the pClamp 8.1 software. To analyze the KCNQ2/3 channel deactivation, a single exponential fit was applied to the tail currents. Chord conductance (G) was calculated by using the equation: G=I/(V−Vrev) where I corresponds to the current amplitude measured at the end of the pulse and Vrev, the calculated reversal potential assumed to be −90 mV in CHO cells and −98 mV in Xenopus oocytes. G was estimated at various test voltages V and then, normalized to a maximal conductance value, Gmax, calculated at +40 mV. Activation curves were fitted by a Boltzmann distribution: G/Gmax=1/{1+exp[(V50−V)/s]} where V50 is the voltage at which the current is half-activated and s is the slope factor. All data were expressed as mean±SEM. Statistically significant differences were assessed by Student's t-test.
Data are expressed as mean±SEM of 5-8 separate experiments.
On the technique in general: Two-electrode voltage clamp is typically applied to oocytes expressing channels or transporters.

[2] abbreviates: 100 μM, prepulse −20 mV, tail −60 mV.

Values joined by “and” are separate entries in the source; they are usually repeats but may differ in a detail not shown here. Identical values can stand only once.

In general, ED50 refers to the midpoint of the dose-response relation.

On to `Cc1ccc(Cl)c(Nc2ccccc2C(=O)O)c1Cl` [Compound 1, Meclofenamic acid], for which the “V50 of KCNQ2/3 current activation with compound” value at KCNQ2/3 channels (100 μM, CHO cells) is −42.34±2.08 mV. Besides, the “leftward shift in the voltage-dependence of KCNQ2/3 current activation” value on KCNQ2/3 channels (100 μM, CHO cells) was 22.7 mV. The “slope parameter s of the Boltzmann fitting curve” value at KCNQ2/3 channels (100 μM, CHO cells) was −10.50±0.93 mV/e fold. Further, the “increase of the time constant for deactivation” value at KCNQ2/3 channels (setting [2]) is “about 2 fold”. The “time constant for deactivation τdeact with compound” value at KCNQ2/3 channels (setting [2]) came out at 167.5 ± 11.6 ms. Also, at KCNQ2/3 channels (CHO cells), the “effect on KCNQ2/3 activation kinetics” value is “did not affect”. For the same compound, on KCNQ2/3 channels (CHO cells, control −50 mV), the “voltage threshold of KCNQ2/3 current activation upon exposure” value was “about −60 mV”. Moreover, the “increase of KCNQ2/3 current amplitude” value on KCNQ2/3 channels (at −30 mV, CHO cells) is listed as > 2.5 fold; at KCNQ2/3 channels (at −40 mV, CHO cells), > 5 fold; on KCNQ2/3 channels (at −50 mV, CHO cells), “more than 10 fold”. In addition, the “increase in KCNQ2/3 current amplitude” value at KCNQ2/3 channels (potentials around −60/−50 mV) is reported as “more than 10 fold”. On KCNQ2/3 channels (train protocol, cells stepped to −20 mV), the “increase of the current amplitude” value is listed as “up to 72%”. Besides, the “KCNQ2/3 current amplitude with compound” value at KCNQ2/3 channels (train protocol, stepped to −20 mV, control 844±130 pA) is 1451±164 pA. The “effect on spontaneous spiking activity” value with rat cortical neurons (10 μM) is “completely but reversibly inhibited”. Further, in the series with rat cortical neurons (10 μM, 100 pA depolarizing current for 800 mseconds, control 20±1), the “number of evoked action potentials with compound” value was determined as 1±1. Moreover, in the series on rat cortical neurons (5-20 μM), the “effect on evoked potentials” value was “reversibly inhibited”. Moreover, the “enhancement of the linopirdine-sensitive outward current” value on M-current (10 μM, step from −80 mV to −40 mV) is 465±134 percents of control. Also, the “% Protection” value in series [1] (50 mg/kg i.p., 30 minutes before electroshock) was 17% and 17 (6) %; in series [1] (100 mg/kg i.p., 30 minutes before electroshock), 75 (5) %; in series [1] (100 mg/kg i.p., 2 hours before electroshock) it was 25 (4) %; in series [1] (200 mg/kg i.p., 30 minutes before electroshock) it was “toxic”; in series [1] (200 mg/kg i.p., 2 hours before electroshock), “toxic”. For the same compound, in series [1] (150 mg/kg intraperitoneally), the “adverse effect in mice” value is recorded as “sedation”. Moreover, the “mice protected from electroshock” value in series [1] (Example 9: 50 mg/kg intraperitoneally, 30 minutes before shock) is 50%. For the same compound, the “protection from electroshock seizures” value in series [1] (Example 9: 100 mg/kg intraperitoneally, 30 minutes before shock) was “fully prevented seizures”. In series [1] (mouse, in vivo), the “toxic effects at high doses” value was “pro-convulsive toxic effects and hyperactivity”. The “leftward shift in the voltage-dependence of KCNQ2/Q3 current activation” value on KCNQ2/Q3 (25 μM, Xenopus oocytes) is −15.9 mV. For the same compound, the “V50 of KCNQ2/Q3 current activation with compound” value at KCNQ2/Q3 (25 μM, Xenopus oocytes, control −28.6±2.9 mV) is given as −44.5±3.1 mV. For the same compound, at KCNQ2/Q3 (25 μM), the “increase of KCNQ2/Q3 currents” value was found to be 1.75 fold. Besides, the “increase in KCNQ2/Q3 current amplitude” value on KCNQ2/Q3 (25 μM, oocyte membrane stepped from −80 mV to −40 mV) turned out to be 53±8%. For the same compound, the “oocyte resting membrane potential after compound” value at KCNQ2/Q3 (increasing concentrations, from −56±2 mV) is reported as −72±3 mV. Moreover, the EC50 on KCNQ2/Q3 (increasing concentrations, read-out: EC50 of hyperpolarization of the oocyte resting membrane potential) is 11.7 ± 5.2 µM.

Consider `O=C(Cc1ccccc1Nc1c(Cl)cccc1Cl)NCCOCCO` [Compound 6], for which the “leftward shift in the voltage-dependence of KCNQ2/3 activation” value on KCNQ2/3 channels (25 μM, CHO cells) was “about 13 mV”. Moreover, at KCNQ2/3 channels (25 μM, CHO cells, control −30.9±4.1 mV), the “V50 of KCNQ2/3 activation with compound” value is −43.45±2.3 mV. The “increase of the current amplitude” value on KCNQ2/3 channels (25 μM, train protocol, stepped to −50 mV) is “up to 220%”. The “effect on deactivation kinetics of KCNQ2/3 channels” value at KCNQ2/3 channels (CHO cells) is recorded as “slowed down”. Further, the EC50 at KCNQ2/3 channels (at −50 mV, CHO cells, read-out: EC50 of concentration-dependent current increase) was determined as 7 ± 1 µM. The “effect on evoked and spontaneous cortical neuron activity” value in the series with rat cortical neurons was “depress”. For the same compound, the “effect on spontaneous action potentials” value with rat cortical neurons (5 μM-20 μM, within less than 2 minutes) was “profound depression of spontaneous action potentials”. The “effect on number of evoked action potentials” value in the series on rat cortical neurons (10 μM) was “reduced drastically and reversibly”. Moreover, the “negative shift in the threshold of M-current activation” value on M-current (cortical neurons, from −50 mV to −70 mV) was “approximately 20 mV”. For the same compound, the ED50 in series [1] (Mus musculus, intraperitoneal 6-20 mg/kg, twenty minutes before electroshock, read-out: ED50 of protective effect against seizures) came out at 8.7 mg/kg. On KCNQ2/Q3 (25 μM), the “increase of KCNQ2/Q3 currents” value worked out at 1.95 fold.
